Results from paper PMC2074348, “Preclinical in vivo efficacy of two 9-dihydrotaxane analogues against human and murine tumours” (British Journal of Cancer, 1996).
In brackets after ≈: the same amount, converted by molar mass. Where two headings read alike, the source gives them in different places.

What was measured:
HT-29 = test: In vitro tumour cell cytotoxicity, colorimetric MTT assay, 72 h; assay type: cell-based, human; details: 72 h exposure
murine M109 solid tumour = test: In vivo efficacy vs subcutaneous M109 solid tumour; details: for Days (1.0 g): days to reach mean tumour mass = 1.0 g ± s.d. / Delay (1.0 g): delay to reach mean tumour mass = 1.0 g, compared with untreated / Per cent cures (mice with no palpable tumours, day 60) / Per cent toxicity / TWI (per cent tumour weight inhibition when untreated control mean = 1.0 g): q.d., i.p., days 1, 5, 9 after inoculation, s.c. tumour, BDF1 mice; for Optimal dose: i.p. every fourth day for three total injections (days 1, 5, 9 after inoculation); for Delay in solid tumour growth to 1 g: paclitaxel at a non-toxic dose
A549 = test: In vitro tumour cell cytotoxicity, colorimetric MTT assay, 72 h; assay type: cell-based, human; details: 72 h exposure
[1] = Pharmacokinetics following i.p. dosing in mice; details: for t1/2 / Cmax / Tmax / AUC / AUC value (rounded) / Cmax (rounded): 20 mg kg-1 i.p.; for t1/2 / Cmax / Tmax / AUC: male CD-1 mice; for t1/2 / AUC / AUC value (rounded) / Cmax (rounded): plasma; for Cmax / Tmax: plasma (Table VI); for AUC: 0-12 h, trapezoidal (Table VI); for AUC value (rounded) / Cmax (rounded): mice; for Serum concentrations compared with paclitaxel: at equal dosages
[2] = tested on: human MX-1 xenograft solid tumour; details: for Cure rate / Delay in tumour growth compared with untreated controls: once daily on days 1-5 after inoculation
B16F10 = test: In vitro tumour cell cytotoxicity, colorimetric MTT assay, 72 h; assay type: cell-based, murine; details: 72 h exposure
[3] = tested on: murine B16F10 melanoma ascites tumour; test: In vivo efficacy vs i.p. B16F10 melanoma ascites tumour; details: for Cure rate at optimal non-toxic dose / Optimal increase in life span (ILS): at non-toxic doses; for %ILS (group mean increase in lifespan) / MST (mean survival time ± s.d.) / Per cent cures (mice alive 60 days after inoculation) / Per cent toxicity (mice with premature death): q.d., i.p., days 1-5 after inoculation, BDF1 mice; for Efficacy against murine B16 ascites tumour compared with paclitaxel: mouse, in vivo
P388 = test: In vitro tumour cell cytotoxicity, colorimetric MTT assay, 72 h; assay type: cell-based, murine; details: 72 h exposure
[4] = tested on: A549, HT-29, B16F10 and P388 tumour cells; test: In vitro cytotoxicity across the four tumour cell lines, compared with paclitaxel; assay type: cell-based; details: human and murine tumour cells
[5] = tested on: BDF mice bearing B16F10 ascites tumours; details: […]
[6] = dose 12.5 mg kg-1 per day, q.d., i.p., days 1-5 after inoculation, s.c. xenograft, nude mice
[7] = dose 25 mg kg-1 per day, q.d., i.p., days 1-5 after inoculation, s.c. xenograft, nude mice
[8] = dose 50 mg kg-1 per day, q.d., i.p., days 1-5 after inoculation, s.c. xenograft, nude mice
[9] = dose 100 mg kg-1 per day, q.d., i.p., days 1-5 after inoculation, s.c. xenograft, nude mice
[10] = i.p. once daily for 5 consecutive days

CC(=O)O[C@@H]1C2=C(C)[C@@H](OC(=O)[C@H](O)[C@@H](NC(=O)c3ccccc3)c3ccccc3)C[C@@](O)([C@@H](OC(=O)c3ccccc3)[C@@H]3[C@]4(OC(C)=O)CO[C@@H]4C[C@H](O)[C@@]3(C)[C@H]1O)C2(C)C [Compound A-85576, 9-dihydrotaxol]
IC50 (HT-29): 0.008 µg/mL (≈ 0.00935 µM) | Days (1.0 g): days to reach mean tumour mass = 1.0 g ± s.d. (murine M109 solid tumour; dose 25 mg kg-1 per day): 13.6+2.3 days | Delay (1.0 g): delay to reach mean tumour mass = 1.0 g, compared with untreated (murine M109 solid tumour; dose 25 mg kg-1 per day): 1.6 days | Per cent cures (mice with no palpable tumours, day 60) (murine M109 solid tumour; dose 25 mg kg-1 per day): 0% | Per cent toxicity (murine M109 solid tumour; dose 25 mg kg-1 per day): 0% | TWI (per cent tumour weight inhibition when untreated control mean = 1.0 g) (murine M109 solid tumour; dose 25 mg kg-1 per day): 34% | Days (1.0 g): days to reach mean tumour mass = 1.0 g ± s.d. (murine M109 solid tumour; dose 50 mg kg-1 per day): 14.1+3.2 days | Delay (1.0 g): delay to reach mean tumour mass = 1.0 g, compared with untreated (murine M109 solid tumour; dose 50 mg kg-1 per day): 2.1 days | Per cent cures (mice with no palpable tumours, day 60) (murine M109 solid tumour; dose 50 mg kg-1 per day): 0% | Per cent toxicity (murine M109 solid tumour; dose 50 mg kg-1 per day): 0% | TWI (per cent tumour weight inhibition when untreated control mean = 1.0 g) (murine M109 solid tumour; dose 50 mg kg-1 per day): 46% | Delay (1.0 g): delay to reach mean tumour mass = 1.0 g, compared with untreated (murine M109 solid tumour; dose 100 mg kg-1 per day): 10.5 days | Per cent cures (mice with no palpable tumours, day 60) (murine M109 solid tumour; dose 100 mg kg-1 per day): 0% | Per cent toxicity (murine M109 solid tumour; dose 100 mg kg-1 per day): 0% | TWI (per cent tumour weight inhibition when untreated control mean = 1.0 g) (murine M109 solid tumour; dose 100 mg kg-1 per day): 90% | Optimal dose (murine M109 solid tumour): 100 mg kg-1 injection | Delay in solid tumour growth to 1 g (murine M109 solid tumour): 10.5 days | IC50 (A549): 0.019 µg/mL (≈ 0.0222 µM) | t1/2 [1]: 1.9 h | Cmax [1]: 40.32 ig ml-1 | Tmax [1]: 0.58 h | AUC [1]: 75.62 ig per h ml-1 | AUC value (rounded) [1]: over 75 jg h-1 ml-1 | Cmax (rounded) [1]: 40 jg ml-1 | Serum concentrations compared with paclitaxel [1]: greater than paclitaxel | Delay (1.0 g) (footnote: delay to reach mean tumour mass = 0.5 g, compared with untreated) [2, 6]: 1.6 days | Per cent cures (mice with no palpable tumours, day 60) [2, 6]: 0% | Per cent toxicity [2, 6]: 0% | TWI (per cent tumour weight inhibition when untreated control mean = 0.5 g) [2, 6]: 31% | Delay (1.0 g) (footnote: delay to reach mean tumour mass = 0.5 g, compared with untreated) [2, 7]: 5.9 days | Per cent cures (mice with no palpable tumours, day 60) [2, 7]: 0% | Per cent toxicity [2, 7]: 0% | TWI (per cent tumour weight inhibition when untreated control mean = 0.5 g) [2, 7]: 65% | Delay (1.0 g) (footnote: delay to reach mean tumour mass = 0.5 g, compared with untreated) [2, 8]: 12.4 days | Per cent toxicity [2, 8]: 0% | TWI (per cent tumour weight inhibition when untreated control mean = 0.5 g) [2, 8]: 94% | Delay (1.0 g) (footnote: delay to reach mean tumour mass = 0.5 g, compared with untreated) [2, 9]: 21.1 days | Per cent cures (mice with no palpable tumours, day 60) [2, 9]: 60% | Per cent toxicity [2, 9]: 0% | TWI (per cent tumour weight inhibition when untreated control mean = 0.5 g) [2, 9]: 98% | Cure rate [2]: 60% | Delay in tumour growth compared with untreated controls [2]: 21 days | IC50 (B16F10): 0.025 µg/mL (≈ 0.0292 µM) | Cure rate at optimal non-toxic dose [3, 10]: 0% | Optimal increase in life span (ILS) [3, 10]: 39% | %ILS (group mean increase in lifespan) ([3]; dose 25 mg kg-1 per day): 21% | MST (mean survival time ± s.d.) ([3]; dose 25 mg kg-1 per day): 23.9 ± 4.3 days | Per cent cures (mice alive 60 days after inoculation) ([3]; dose 25 mg kg-1 per day): 0% | Per cent toxicity (mice with premature death) ([3]; dose 25 mg kg-1 per day): 0% | %ILS (group mean increase in lifespan) ([3]; dose 50 mg kg-1 per day): 39% | Per cent cures (mice alive 60 days after inoculation) ([3]; dose 50 mg kg-1 per day): 0% | Per cent toxicity (mice with premature death) ([3]; dose 50 mg kg-1 per day): 0% | %ILS (group mean increase in lifespan) ([3]; dose 100 mg kg-1 per day): 46% | Per cent cures (mice alive 60 days after inoculation) ([3]; dose 100 mg kg-1 per day): 0% | Per cent toxicity (mice with premature death) ([3]; dose 100 mg kg-1 per day): 20% | Optimal dose [3, 10]: 50 mg/kg/day | Efficacy against murine B16 ascites tumour compared with paclitaxel [3]: less effective | IC50 (P388): 0.053 µg/mL (≈ 0.0619 µM) | In vitro potency compared with paclitaxel [4]: generally less than that of paclitaxel

CC(=O)OC12COC1CC(O)C1(C)C(O)C(O)C3=C(C)C(OC(=O)C(O)C(NC(=O)c4ccccc4)c4ccccc4)CC(O)(C(OC(=O)c4ccccc4)C21)C3(C)C (stereo not drawn) [Compound A-86415, 10-deacetyl-9-dihydrotaxol]
IC50 (HT-29): 0.0019 µg/mL (≈ 0.00233 µM) | Days (1.0 g): days to reach mean tumour mass = 1.0 g ± s.d. (murine M109 solid tumour; dose 25 mg kg-1 per day): 12.0+0 days | Delay (1.0 g): delay to reach mean tumour mass = 1.0 g, compared with untreated (murine M109 solid tumour; dose 25 mg kg-1 per day): 0 days | Per cent cures (mice with no palpable tumours, day 60) (murine M109 solid tumour; dose 25 mg kg-1 per day): 0% | Per cent toxicity (murine M109 solid tumour; dose 25 mg kg-1 per day): 0% | TWI (per cent tumour weight inhibition when untreated control mean = 1.0 g) (murine M109 solid tumour; dose 25 mg kg-1 per day): 10% | Days (1.0 g): days to reach mean tumour mass = 1.0 g ± s.d. (murine M109 solid tumour; dose 50 mg kg-1 per day): 12.0+0 days | Delay (1.0 g): delay to reach mean tumour mass = 1.0 g, compared with untreated (murine M109 solid tumour; dose 50 mg kg-1 per day): 0 days | Per cent cures (mice with no palpable tumours, day 60) (murine M109 solid tumour; dose 50 mg kg-1 per day): 0% | Per cent toxicity (murine M109 solid tumour; dose 50 mg kg-1 per day): 0% | TWI (per cent tumour weight inhibition when untreated control mean = 1.0 g) (murine M109 solid tumour; dose 50 mg kg-1 per day): 19% | Delay (1.0 g): delay to reach mean tumour mass = 1.0 g, compared with untreated (murine M109 solid tumour; dose 100 mg kg-1 per day): 5.1 days | Per cent cures (mice with no palpable tumours, day 60) (murine M109 solid tumour; dose 100 mg kg-1 per day): 0% | Per cent toxicity (murine M109 solid tumour; dose 100 mg kg-1 per day): 0% | TWI (per cent tumour weight inhibition when untreated control mean = 1.0 g) (murine M109 solid tumour; dose 100 mg kg-1 per day): 79% | Optimal dose (murine M109 solid tumour): 100 mg kg-1 injection | Delay in solid tumour growth to 1 g (murine M109 solid tumour): 5.1 days | IC50 (A549): 0.011 µg/mL (≈ 0.0135 µM) | t1/2 [1]: 2.8 h | Cmax [1]: 11.19 ig ml-1 | Tmax [1]: 1.40 h | AUC [1]: 29.81 ig per h ml-1 | AUC value (rounded) [1]: 30 jg h-1 ml-1 | Cmax (rounded) [1]: 11 jg ml-1 | Serum concentrations compared with paclitaxel [1]: less than paclitaxel | Delay (1.0 g) (footnote: delay to reach mean tumour mass = 0.5 g, compared with untreated) [2, 6]: 0 days | Per cent cures (mice with no palpable tumours, day 60) [2, 6]: 20% | Per cent toxicity [2, 6]: 0% | TWI (per cent tumour weight inhibition when untreated control mean = 0.5 g) [2, 6]: 27% | Days to 1.0 g (footnote: days to reach mean tumour mass = 0.5 g ± s.d.) [2, 7]: 33.3 + 7.6 days | Delay (1.0 g) (footnote: delay to reach mean tumour mass = 0.5 g, compared with untreated) [2, 7]: 5.4 days | Per cent cures (mice with no palpable tumours, day 60) [2, 7]: 10% | Per cent toxicity [2, 7]: 0% | TWI (per cent tumour weight inhibition when untreated control mean = 0.5 g) [2, 7]: 73% | Delay (1.0 g) (footnote: delay to reach mean tumour mass = 0.5 g, compared with untreated) [2, 8]: 14.7 days | Per cent cures (mice with no palpable tumours, day 60) [2, 8]: 30% | Per cent toxicity [2, 8]: 0% | TWI (per cent tumour weight inhibition when untreated control mean = 0.5 g) [2, 8]: 99% | Delay (1.0 g) (footnote: delay to reach mean tumour mass = 0.5 g, compared with untreated) [2, 9]: 33.1 days | Per cent cures (mice with no palpable tumours, day 60) [2, 9]: 70% | Per cent toxicity [2, 9]: 0% | TWI (per cent tumour weight inhibition when untreated control mean = 0.5 g) [2, 9]: 100% | Cure rate [2]: 70% | Delay in tumour growth compared with untreated controls [2]: 33 days | IC50 (B16F10): 0.039 µg/mL (≈ 0.0479 µM) | Cure rate at optimal non-toxic dose [3, 10]: 10% | Optimal increase in life span (ILS) [3, 10]: 83% | %ILS (group mean increase in lifespan) ([3]; dose 25 mg kg-1 per day): 52% | Per cent cures (mice alive 60 days after inoculation) ([3]; dose 25 mg kg-1 per day): 0% | Per cent toxicity (mice with premature death) ([3]; dose 25 mg kg-1 per day): 0% | %ILS (group mean increase in lifespan) ([3]; dose 50 mg kg-1 per day): 83% | MST (mean survival time ± s.d.) ([3]; dose 50 mg kg-1 per day): 36.1 ± 4.5 days | Per cent cures (mice alive 60 days after inoculation) ([3]; dose 50 mg kg-1 per day): 10% | Per cent toxicity (mice with premature death) ([3]; dose 50 mg kg-1 per day): 0% | %ILS (group mean increase in lifespan) ([3]; dose 100 mg kg-1 per day): 77% | Per cent cures (mice alive 60 days after inoculation) ([3]; dose 100 mg kg-1 per day): 0% | Per cent toxicity (mice with premature death) ([3]; dose 100 mg kg-1 per day): 0% | Efficacy against murine B16 ascites tumour compared with paclitaxel [3]: as effective as paclitaxel | IC50 (P388): 0.014 µg/mL (≈ 0.0172 µM) | In vitro potency compared with paclitaxel [4]: generally less than that of paclitaxel | MTD (q.d. days 1-5) [5]: greater than 100 mg kg-1 per day
